Assays:
[1] = test system: rats subjected to L5 SNL; experiment: Standard model for neuropathic pain (L5 SNL), behavioural studies overall; format: in vivo; details: rat L5 SNL; treated for 4 weeks, 3 mg/kg po every other day; versus placebo
Description: (§1) Adult male Sprague-Dawley rats (150-200 g) were housed under natural light: dark cycles and provided water and food ad lib. They were habituated to the testing paradigms for 3-5 days before data collection. All protocols were approved by the Animal Care and Use Committee of Kings College London and UK Home Office.
(§2) Animals were studied using the standard model for neuropathic pain (lumbar 5 spinal nerve ligation, L5 SNL; see, e.g., Kim et al., 1992). This is the most widely used model in neuropathic pain studies because of its high reproducibility of spontaneous and evoked pain (hyperalgesia, allodynia) and the absence of autotomy (see, e.g., Barrot, 2012; Huang et al., 2016).
(§3) Adult rats received a partial nerve ligation of the left sciatic nerve (see, e.g., Seltzer et al., 1990) under isoflurane (Abbott Animal Health) inhalation anesthesia. A small incision was made midway up the left thigh to expose the sciatic nerve. The nerve was carefully cleared of surrounding connective tissues at a site near the trochanter just distal to the point at which the posterior biceps semitendinosus nerve branches off the common sciatic nerve. […]
(§4) Pain thresholds were measured according to the methods described below, baseline at 1 day prior to surgery, and at 1, 6, 9, 16, 23, and 28 days after surgery.

[2] = test system: rats subjected to L5 SNL; experiment: Pain threshold, mechanical allodynia (von Frey hairs) after nerve ligation; format: in vivo; details: rat L5 SNL; 3 mg/kg po every other day for 4 weeks; versus placebo; FIG. 1
Description: as §1, §2
(§5) Adult rats received a partial nerve ligation of the left sciatic nerve (see, e.g., Seltzer et al., 1990) under isoflurane (Abbott Animal Health) inhalation anesthesia. A small incision was made midway up the left thigh to expose the sciatic nerve. […]
as §4
Static mechanical withdrawal thresholds were assessed by applying von Frey hairs (Touch Test, Stoelting, Ill., USA) to the plantar surface of the hind paw. […] A positive response was recorded when a 40% withdrawal response occurred over 5 applications. […]

[3] = test system: tumour necrosis factor α (TNFα); experiment: RT-qPCR analysis of TNFα expression in spinal cord after nerve injury; format: in vivo; details: rat; 14 days after injury; 3 mg/kg po every other day; versus placebo; FIG. 5
Experimental: (§6) Two groups of 11 rats were studied. In each group, the rats received partial nerve ligation of the left sciatic nerve (L5 SNL), as described above. In one group, the rats were treated with test compound; in the other group, the rats were treated with placebo. In each group, 8 animals were used for behavioral studies (for 28 days following surgery), as described below. In each group, 3 animals were used for tissue analysis (at 14 days following surgery), as described below.
(§7) Rats were treated with treatment solution or a placebo, orally, starting on the day after surgery and subsequently every other day for 4 weeks.
(§8) For treated animals, treatment solution was administered orally (po), by oral gavage, to give a dose of 3 mg/kg.
(§9) Fourteen days after injury, three rats from each group were sacrificed. […] Total RNA was isolated with the Qiagen RNeasy® Mini kit and reverse transcribed with a QuantiTect® Reverse Transcription kit (Qiagen). Levels of tumour necrosis factor α (TNFα) and tumour necrosis factor receptor 1 (TNFR1) expression were quantitated in triplicate, relative to glyceraldehyde 3-phosphate dehydrogenase (GAPDH) and triplicate non-template controls for each gene, by RT-qPCR analysis on a LightCycler® 480 instrument with LightCycler® SYBR® Green 1 Master reagent (Roche). […]

[4] = test system: brain-derived neurotrophic factor (BDNF); experiment: Immunocytochemistry of BDNF in spinal cord after nerve injury; format: in vivo; details: rat; 14 days after injury; 3 mg/kg po every other day; versus placebo; FIG. 7
Experimental: as §6, §7
For treated animals, treatment solution was administered orally (po), by oral gavage, to give a dose of 3 mg/kg. […]
Multichannel fluorescence (DAPI-FITC-Texas Red filter set) images were captured using a Zeiss LSM 700 laser-scanning confocal microscope. […] Axiovision software was used to collect information on pixel immunoreactivity used for quantitative purposes. […]
FIG. 7 is a bar graph showing the BDNF level (arbitray units) in the dorsal horn ipsilateral to peripheral nerve injury for (a) rats treated with placebo and (b) rats treated with BOBA-001. Five serial sections per injured cord analysed, from 3 animals per group (n=3). […]

[5] = test system: rats subjected to L5 SNL; experiment: Pain threshold, Randall-Selitto test (paw pressure threshold); format: in vivo; details: rat L5 SNL; 3 mg/kg po every other day for 4 weeks; versus placebo; FIG. 4
Description: as §1, §2, §5, §4
Mechanical nociceptive thresholds were evaluated using an Analgesy-Meter (Ugo Basile, Comerio, Italy) (see, e.g., Raghavendra et al., 2003). […] The pressure required to elicit paw withdrawal, the paw pressure threshold, in grams, was determined. […]

[6] = test system: tumour necrosis factor receptor 1 (TNFR1); experiment: RT-qPCR analysis of TNFR1 expression in spinal cord after nerve injury; format: in vivo; details: rat; 14 days after injury; 3 mg/kg po every other day; versus placebo; FIG. 6
Experimental: as §6, §7, §8, §9

[7] = test system: rats subjected to L5 SNL; experiment: Pain threshold, thermal hyperalgesia, cold plate; format: in vivo; details: rat L5 SNL; 3 mg/kg po every other day for 4 weeks; plate at 4 °C; versus placebo; FIG. 3
Description: as §1, §2, §5, §4
Withdrawal of the hind paw in response to painful cold stimulation was assessed using an Incremental Hot/Cold Plate (IITC Life Sciences) set at 4±0.1° C. […] The latency to withdraw the paw was measured to the nearest 0.01 seconds. […]

[8] = test system: rats subjected to L5 SNL; experiment: Pain threshold, thermal hyperalgesia, hot plate (radiant heat paw withdrawal latency); format: in vivo; details: rat L5 SNL; 3 mg/kg po every other day for 4 weeks; versus placebo; FIG. 2
Description: as §1, §2, §3, §4
Thermal hyperalgesia was assessed using a modified method of Hargreaves et al., 1988. […]

[9] = test system: axonal outgrowth; details: models of nerve injury; earlier work of the Applicant (Borthwick et al., 2016); cited from earlier work

Cc1ccc(C)c2oc(-c3nc(-c4ccc(C(=O)O)cc4)no3)cc12 [BOBA-001, 4-(5-(4,7-Dimethylbenzofuran-2-yl)-1,2,4-oxadiazol-3-yl)benzoic acid]
amelioration of pain [1]: significant amelioration of pain | mechanical paw withdrawal threshold (von Frey) [2]: significant improvement | TNFα: GAPDH expression ratio in the dorsal horn ipsilateral to peripheral nerve injury [3]: significantly down-regulated | BDNF level in the dorsal horn ipsilateral to peripheral nerve injury [4]: significantly down-regulated | Randall Sellito paw withdrawal threshold (mechanical threshold) [5]: significant improvement | TNFR1: GAPDH expression ratio in the dorsal horn ipsilateral to peripheral nerve injury [6]: significantly down-regulated | cold plate paw withdrawal (thermal threshold) [7]: significant improvement | hot plate paw withdrawal (thermal threshold) [8]: significant improvement | axonal outgrowth [9]: causes axonal outgrowth
